# From PubChem BioAssay (NCI)
#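 Tested at 5 concentrations; 48 h exposure; 96-well plates; endpoints linearly interpolated, else capped at highest concentration. GI50 marks 50% less growth. Definition used: TGI = concentration required for complete inhibition of growth.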
# Key:
# Experiment in all cases: DTP human tumour cell line panel, 48 h
# A498 renal = tested on: A498 renal
# PC-3 prostate = tested on: PC-3 prostate
# SR leukemia = tested on: SR leukemia
# SW-620 colon = tested on: SW-620 colon
# BT-549 breast = tested on: BT-549 breast
# OVCAR-3 ovarian = tested on: OVCAR-3 ovarian
# A549 NSCLC = tested on: A549 NSCLC
# SN12C renal = tested on: SN12C renal
# SNB-75 CNS = tested on: SNB-75 CNS
# MOLT-4 leukemia = tested on: MOLT-4 leukemia
# HCT-116 colon = tested on: HCT-116 colon
# HL-60(TB) leukemia = tested on: HL-60(TB) leukemia
# MDA-MB-435 = tested on: MDA-MB-435
# SF-268 CNS = tested on: SF-268 CNS
# OVCAR-5 ovarian = tested on: OVCAR-5 ovarian
# COLO 205 colon = tested on: COLO 205 colon
# IGROV1 ovarian = tested on: IGROV1 ovarian
# OVCAR-4 ovarian = tested on: OVCAR-4 ovarian
# 786-0 renal = tested on: 786-0 renal
# NCI/ADR-RES ovarian = tested on: NCI/ADR-RES ovarian
# K-562 leukemia = tested on: K-562 leukemia
# HOP-62 NSCLC = tested on: HOP-62 NSCLC
# TK-10 renal = tested on: TK-10 renal
# SF-295 CNS = tested on: SF-295 CNS
# HT29 colon = tested on: HT29 colon
# KM12 colon = tested on: KM12 colon
# SNB-19 CNS = tested on: SNB-19 CNS
# HOP-92 NSCLC = tested on: HOP-92 NSCLC
# DU-145 prostate = tested on: DU-145 prostate
# ACHN renal = tested on: ACHN renal
# NCI-H226 lung = tested on: NCI-H226 lung
# MCF7 breast = tested on: MCF7 breast
# HCT-15 colon = tested on: HCT-15 colon
# UACC-257 melanoma = tested on: UACC-257 melanoma
# HCC-2998 colon = tested on: HCC-2998 colon
# CCRF-CEM leukemia = tested on: CCRF-CEM leukemia
# SK-MEL-2 melanoma = tested on: SK-MEL-2 melanoma
# RPMI-8226 leukemia = tested on: RPMI-8226 leukemia
# UACC-62 melanoma = tested on: UACC-62 melanoma
# T-47D breast = tested on: T-47D breast
# SF-539 CNS = tested on: SF-539 CNS
# MALME-3M melanoma = tested on: MALME-3M melanoma
# LOX IMVI melanoma = tested on: LOX IMVI melanoma
# SK-OV-3 ovarian = tested on: SK-OV-3 ovarian
# NCI-H23 lung = tested on: NCI-H23 lung
# OVCAR-8 ovarian = tested on: OVCAR-8 ovarian
# NCI-H522 lung = tested on: NCI-H522 lung
# EKVX NSCLC = tested on: EKVX NSCLC
# SK-MEL-28 melanoma = tested on: SK-MEL-28 melanoma
# NCI-H460 lung = tested on: NCI-H460 lung
# M14 melanoma = tested on: M14 melanoma
# MDA-MB-231 breast = tested on: MDA-MB-231 breast
# CAKI-1 renal = tested on: CAKI-1 renal
# HS 578T breast = tested on: HS 578T breast
# UO-31 renal = tested on: UO-31 renal
# SK-MEL-5 melanoma = tested on: SK-MEL-5 melanoma
# U251 CNS = tested on: U251 CNS
smiles,measurement,setting,value
CN1CCN(c2ccc(Nc3nc(NCCCNS(=O)(=O)c4ccc(F)cc4)c4sccc4n3)cc2)CC1,GI50,A498 renal,16.1 µM
same,TGI,A498 renal,32.4 µM
same,GI50,PC-3 prostate,13.4 µM
same,TGI,PC-3 prostate,46.1 µM
same,GI50,SR leukemia,2.83 µM
same,TGI,SR leukemia,> 100 µM
same,GI50,SW-620 colon,15.2 µM
same,TGI,SW-620 colon,30.1 µM
same,GI50,BT-549 breast,13.9 µM
same,TGI,BT-549 breast,31.4 µM
same,GI50,OVCAR-3 ovarian,17.8 µM
same,TGI,OVCAR-3 ovarian,55.7 µM
same,GI50,A549 NSCLC,21.2 µM
same,TGI,A549 NSCLC,97.9 µM
same,GI50,SN12C renal,13.6 µM
same,TGI,SN12C renal,37.2 µM
same,GI50,SNB-75 CNS,0.271 µM
same,TGI,SNB-75 CNS,20.3 µM
same,GI50,MOLT-4 leukemia,6.02 µM
same,TGI,MOLT-4 leukemia,43.1 µM
same,GI50,HCT-116 colon,5.35 µM
same,TGI,HCT-116 colon,28.5 µM
same,GI50,HL-60(TB) leukemia,19.8 µM
same,TGI,HL-60(TB) leukemia,45.4 µM
same,GI50,MDA-MB-435,14.3 µM
same,TGI,MDA-MB-435,27.4 µM
same,GI50,SF-268 CNS,12.8 µM
same,TGI,SF-268 CNS,63.4 µM
same,GI50,OVCAR-5 ovarian,18.1 µM
same,TGI,OVCAR-5 ovarian,55.9 µM
same,GI50,COLO 205 colon,14.2 µM
same,TGI,COLO 205 colon,32.2 µM
same,GI50,IGROV1 ovarian,12.9 µM
same,TGI,IGROV1 ovarian,28 µM
same,GI50,OVCAR-4 ovarian,10.2 µM
same,TGI,OVCAR-4 ovarian,38.8 µM
same,GI50,786-0 renal,15.6 µM
same,TGI,786-0 renal,34.4 µM
same,GI50,NCI/ADR-RES ovarian,18.9 µM
same,TGI,NCI/ADR-RES ovarian,55.2 µM
same,GI50,K-562 leukemia,2.82 µM
same,TGI,K-562 leukemia,> 100 µM
same,GI50,HOP-62 NSCLC,15.4 µM
same,TGI,HOP-62 NSCLC,32.8 µM
same,GI50,TK-10 renal,24.6 µM
same,TGI,TK-10 renal,61.5 µM
same,GI50,SF-295 CNS,13.3 µM
same,TGI,SF-295 CNS,26.6 µM
same,GI50,HT29 colon,5.18 µM
same,TGI,HT29 colon,25 µM
same,GI50,KM12 colon,16.9 µM
same,TGI,KM12 colon,56.4 µM
same,GI50,SNB-19 CNS,23 µM
same,TGI,SNB-19 CNS,61.1 µM
same,GI50,HOP-92 NSCLC,4.72 µM
same,TGI,HOP-92 NSCLC,26.1 µM
same,GI50,DU-145 prostate,17.4 µM
same,TGI,DU-145 prostate,43 µM
same,GI50,ACHN renal,17.1 µM
same,TGI,ACHN renal,40.2 µM
same,GI50,NCI-H226 lung,10.8 µM
same,TGI,NCI-H226 lung,23.1 µM
same,GI50,MCF7 breast,7.39 µM
same,TGI,MCF7 breast,20.2 µM
same,GI50,HCT-15 colon,4.6 µM
same,TGI,HCT-15 colon,20.1 µM
same,GI50,UACC-257 melanoma,15.1 µM
same,TGI,UACC-257 melanoma,30.3 µM
same,GI50,HCC-2998 colon,14.9 µM
same,TGI,HCC-2998 colon,30.8 µM
same,GI50,CCRF-CEM leukemia,22.2 µM
same,TGI,CCRF-CEM leukemia,> 100 µM
same,GI50,SK-MEL-2 melanoma,15.5 µM
same,TGI,SK-MEL-2 melanoma,29.7 µM
same,GI50,RPMI-8226 leukemia,5.24 µM
same,TGI,RPMI-8226 leukemia,37.6 µM
same,GI50,UACC-62 melanoma,12.5 µM
same,TGI,UACC-62 melanoma,25.2 µM
same,GI50,T-47D breast,15 µM
same,TGI,T-47D breast,40.4 µM
same,GI50,SF-539 CNS,12 µM
same,TGI,SF-539 CNS,24.4 µM
same,GI50,MALME-3M melanoma,12.1 µM
same,TGI,MALME-3M melanoma,24.4 µM
same,GI50,LOX IMVI melanoma,12 µM
same,TGI,LOX IMVI melanoma,25.6 µM
same,GI50,SK-OV-3 ovarian,27 µM
same,TGI,SK-OV-3 ovarian,78.4 µM
same,GI50,NCI-H23 lung,14.8 µM
same,TGI,NCI-H23 lung,30.3 µM
same,GI50,OVCAR-8 ovarian,14.9 µM
same,TGI,OVCAR-8 ovarian,42.8 µM
same,GI50,NCI-H522 lung,13.3 µM
same,TGI,NCI-H522 lung,27.5 µM
same,GI50,EKVX NSCLC,21 µM
same,TGI,EKVX NSCLC,73.8 µM
same,GI50,SK-MEL-28 melanoma,13.1 µM
same,TGI,SK-MEL-28 melanoma,25.8 µM
same,GI50,NCI-H460 lung,14.5 µM
same,TGI,NCI-H460 lung,29.2 µM
same,GI50,M14 melanoma,2.47 µM
same,TGI,M14 melanoma,7.33 µM
same,GI50,MDA-MB-231 breast,11 µM
same,TGI,MDA-MB-231 breast,27.3 µM
same,GI50,CAKI-1 renal,15.2 µM
same,TGI,CAKI-1 renal,28.4 µM
same,GI50,HS 578T breast,4.92 µM
same,TGI,HS 578T breast,25.4 µM
same,GI50,UO-31 renal,10.7 µM
same,TGI,UO-31 renal,28.7 µM
same,GI50,SK-MEL-5 melanoma,15.8 µM
same,TGI,SK-MEL-5 melanoma,29.2 µM
same,GI50,U251 CNS,5.65 µM
same,TGI,U251 CNS,28.6 µM
